Source: patent US20240041805A1, “PHARMACEUTICAL COMPOSITIONS OF NICLOSAMIDE AND A PROTEIN” (priority 2020, published 2024)
≈ marks a conversion by molar mass, not a printed value. Where “and” joins values, the source holds several entries; their conditions need not be identical. Equal values may be shown once.

Key:
SARS-CoV-2 [1] = type: cell-based
SARS-CoV-2 [2] = test: microbe, parasite or virus in culture; type: cell-based; conditions: Severe acute respiratory syndrome coronavirus 2, Vero C1008; Vero E6 cells, observed CPE, dose based on NIC content
MERS-CoV = test: microbe, parasite or virus in culture; type: cell-based; conditions: Middle East respiratory syndrome-related coronavirus, Vero C1008, read-out: EC50 dose for MERS-CoV
[3] = Particle size distribution by laser diffraction (dry powder and reconstituted suspension); conditions: after air jet milling (micronized)
[4] = test system: methicillin-resistant S. aureus strain Mu50; test: Resazurin-based microbroth dilution assay; type: cell-based; conditions: S. aureus Mu50, hLYS alone
[5] = FTIR-ATR secondary structure analysis of hLYS; type: physicochemical
[6] = Size exclusion chromatography of hLYS aggregation before and after spray drying and nebulization; type: physicochemical; conditions: not nebulized

In the case of `O=C(Nc1ccc([N+](=O)[O-])cc1Cl)c1cc(Cl)ccc1O` [NIC-M, 5-Chloro-N-(2-chloro-4-nitrophenyl)salicylamide], the “inhibitory activity against SARS-CoV-2 compared to solubilized NIC” value (SARS-CoV-2 [1]; NIC dose of 0.125 μg/mL, quantified viral particles) is reported as “significantly improved activity compared to solubilized NIC”, the EC50 (SARS-CoV-2 [2]) is reported as 0.03 mg/L (≈ 0.0917 µM) and the EC50 (MERS-CoV) is reported as 0.016 mg/L (≈ 0.0489 µM).
In the case of `O=C(Nc1ccc([N+](=O)[O-])cc1Cl)c1cc(Cl)ccc1O` [niclosamide, 5-Chloro-N-(2-chloro-4-nitrophenyl)salicylamide], the X50 diameter [3] is reported as 2.2 μm and the X90 diameter [3] is reported as 4.2 μm and 4.1 μm.
For “hLYS: recombinant human lysozyme (InVitria)”, the “activity against SARS-CoV-2” value (SARS-CoV-2 [1]; hLYS alone) was “appeared to exhibit activity against SARS-CoV-2”, the inhibitory activity [4] was “No inhibitory activity” and the “Anti-parallel β-sheet” value ([5]; 1618-1625 cm^−1) was 21.7%. The “Parallel β-sheet” value ([5]; 1633-1637 cm^−1) was 0.7%, the α-helix ([5]; 1653 cm^−1) was 57.6% and the Turns ([5]; 1678-1680 cm^−1) was 20.2%. The Fragment [6] was 0.7%, the HMW [6] was 17.2% and the Monomer [6] was 82.1%.
